{"source": "patent US8604023B2", "about": "“1,4-benzodiazepinone compounds and their use in treating cancer” (The Regents of the University of Michigan, priority 2009, dated 2013)", "key": {"K-562": {"tested_on": "K-562", "assay": "cancer cell growth inhibition (SRB)", "type": "cell-based, human", "details": "Leukemia"}, "786-0": {"tested_on": "786-0", "assay": "cancer cell growth inhibition (SRB)", "type": "cell-based, human", "details": "Renal Cancer"}, "OVCAR-3": {"tested_on": "OVCAR-3", "assay": "cancer cell growth inhibition (SRB)", "type": "cell-based, human", "details": "Ovarian Cancer"}, "DU-145": {"tested_on": "DU-145", "assay": "cancer cell growth inhibition (SRB)", "type": "cell-based, human", "details": "Prostate Cancer"}, "Ramos cells": {"tested_on": "Ramos cells", "assay": "cytotoxicity in Ramos cells", "type": "cell-based", "details": "Homo sapiens", "description": "The compounds listed in Table 5 were tested for cytotoxicity in Ramos cells. The assay was conducted as described in K. M. Johnson et al. Chemistry & Biology 2005, 12, 485-496."}, "A549/ATCC": {"tested_on": "A549/ATCC", "assay": "cancer cell growth inhibition (SRB)", "type": "cell-based, human", "details": "Non-Small Cell Lung Cancer"}, "NCI-H460": {"tested_on": "NCI-H460", "assay": "cancer cell growth inhibition (SRB)", "type": "cell-based, human", "details": "Non-Small Cell Lung Cancer"}, "NCI-H226": {"tested_on": "NCI-H226", "assay": "cancer cell growth inhibition (SRB)", "type": "cell-based, human", "details": "Non-Small Cell Lung Cancer"}, "SF-295": {"tested_on": "SF-295", "assay": "cancer cell growth inhibition (SRB)", "type": "cell-based, human", "details": "CNS Cancer"}, "SNB-75": {"tested_on": "SNB-75", "assay": "cancer cell growth inhibition (SRB)", "type": "cell-based, human", "details": "CNS Cancer"}, "M14": {"tested_on": "M14", "assay": "cancer cell growth inhibition (SRB)", "type": "cell-based, human", "details": "Melanoma"}, "UACC-62": {"tested_on": "UACC-62", "assay": "cancer cell growth inhibition (SRB)", "type": "cell-based, human", "details": "Melanoma"}, "CCRF-CEM": {"tested_on": "CCRF-CEM", "assay": "cancer cell growth inhibition (SRB)", "type": "cell-based, human", "details": "Leukemia"}, "SW-620": {"tested_on": "SW-620", "assay": "cancer cell growth inhibition (SRB)", "type": "cell-based, human", "details": "Colon Cancer"}, "MCF7": {"tested_on": "MCF7", "assay": "cancer cell growth inhibition (SRB)", "type": "cell-based, human", "details": "Breast Cancer"}, "SNB-19": {"tested_on": "SNB-19", "assay": "cancer cell growth inhibition (SRB)", "type": "cell-based, human", "details": "CNS Cancer"}, "MDA-MB-231/ATCC": {"tested_on": "MDA-MB-231/ATCC", "assay": "cancer cell growth inhibition (SRB)", "type": "cell-based, human", "details": "Breast Cancer"}, "T-47D": {"tested_on": "T-47D", "assay": "cancer cell growth inhibition (SRB)", "type": "cell-based, human", "details": "Breast Cancer"}, "KM12": {"tested_on": "KM12", "assay": "cancer cell growth inhibition (SRB)", "type": "cell-based, human", "details": "Colon Cancer"}, "U251": {"tested_on": "U251", "assay": "cancer cell growth inhibition (SRB)", "type": "cell-based, human", "details": "CNS Cancer"}, "PC-3": {"tested_on": "PC-3", "assay": "cancer cell growth inhibition (SRB)", "type": "cell-based, human", "details": "Prostate Cancer"}, "NCI/ADR-RES": {"tested_on": "NCI/ADR-RES", "assay": "cancer cell growth inhibition (SRB)", "type": "cell-based, human", "details": "Breast Cancer"}, "NCI-H522": {"tested_on": "NCI-H522", "assay": "cancer cell growth inhibition (SRB)", "type": "cell-based, human", "details": "Non-Small Cell Lung Cancer"}, "BT-549": {"tested_on": "BT-549", "assay": "cancer cell growth inhibition (SRB)", "type": "cell-based, human", "details": "Breast Cancer"}, "RXF 393": {"tested_on": "RXF 393", "assay": "cancer cell growth inhibition (SRB)", "type": "cell-based, human", "details": "Renal Cancer"}, "UO-31": {"tested_on": "UO-31", "assay": "cancer cell growth inhibition (SRB)", "type": "cell-based, human", "details": "Renal Cancer"}, "HOP-92": {"tested_on": "HOP-92", "assay": "cancer cell growth inhibition (SRB)", "type": "cell-based, human", "details": "Non-Small Cell Lung Cancer"}, "MOLT-4": {"tested_on": "MOLT-4", "assay": "cancer cell growth inhibition (SRB)", "type": "cell-based, human", "details": "Leukemia"}, "HCT-15": {"tested_on": "HCT-15", "assay": "cancer cell growth inhibition (SRB)", "type": "cell-based, human", "details": "Colon Cancer"}}, "data": [{"smiles": "CN1C(=O)C(Cc2ccc3ccccc3c2)N=C(c2cn[nH]c2)c2cc(Cl)ccc21", "note": "(centres unmarked) [Compound V-38]", "values": [{"measurement": "growth inhibition of the cancer cells", "setting": "K-562", "value": "+ (less than 40% growth inhibition of the cancer cells)"}, {"measurement": "growth inhibition of the cancer cells", "setting": "786-0", "value": "+++ (at least 75% growth inhibition of the cancer cells)"}, {"measurement": "growth inhibition of the cancer cells", "setting": "OVCAR-3", "value": "+++ (at least 75% growth inhibition of the cancer cells)"}, {"measurement": "growth inhibition of the cancer cells", "setting": "DU-145", "value": "+++ (at least 75% growth inhibition of the cancer cells)"}, {"measurement": "EC50", "setting": "Ramos cells", "value": "≤ 5", "unit": "µM"}, {"measurement": "growth inhibition of the cancer cells", "setting": "A549/ATCC", "value": "++ (40%-75% growth inhibition of the cancer cells)"}, {"measurement": "growth inhibition of the cancer cells", "setting": "NCI-H460", "value": "++ (40%-75% growth inhibition of the cancer cells)"}, {"measurement": "growth inhibition of the cancer cells", "setting": "NCI-H226", "value": "++ (40%-75% growth inhibition of the cancer cells)"}, {"measurement": "growth inhibition of the cancer cells", "setting": "SF-295", "value": "+ (less than 40% growth inhibition of the cancer cells)"}, {"measurement": "growth inhibition of the cancer cells", "setting": "SNB-75", "value": "+++ (at least 75% growth inhibition of the cancer cells)"}, {"measurement": "growth inhibition of the cancer cells", "setting": "M14", "value": "+++ (at least 75% growth inhibition of the cancer cells)"}, {"measurement": "growth inhibition of the cancer cells", "setting": "UACC-62", "value": "+++ (at least 75% growth inhibition of the cancer cells)"}, {"measurement": "growth inhibition of the cancer cells", "setting": "CCRF-CEM", "value": "+ (less than 40% growth inhibition of the cancer cells)"}, {"measurement": "growth inhibition of the cancer cells", "setting": "SW-620", "value": "+++ (at least 75% growth inhibition of the cancer cells)"}, {"measurement": "growth inhibition of the cancer cells", "setting": "MCF7", "value": "++ (40%-75% growth inhibition of the cancer cells)"}, {"measurement": "growth inhibition of the cancer cells", "setting": "SNB-19", "value": "++ (40%-75% growth inhibition of the cancer cells)"}, {"measurement": "growth inhibition of the cancer cells", "setting": "MDA-MB-231/ATCC", "value": "+ (less than 40% growth inhibition of the cancer cells)"}, {"measurement": "growth inhibition of the cancer cells", "setting": "T-47D", "value": "+ (less than 40% growth inhibition of the cancer cells)"}, {"measurement": "growth inhibition of the cancer cells", "setting": "KM12", "value": "+++ (at least 75% growth inhibition of the cancer cells)"}, {"measurement": "growth inhibition of the cancer cells", "setting": "U251", "value": "+++ (at least 75% growth inhibition of the cancer cells)"}, {"measurement": "growth inhibition of the cancer cells", "setting": "PC-3", "value": "+ (less than 40% growth inhibition of the cancer cells)"}, {"measurement": "growth inhibition of the cancer cells", "setting": "NCI/ADR-RES", "value": "+ (less than 40% growth inhibition of the cancer cells)"}, {"measurement": "growth inhibition of the cancer cells", "setting": "NCI-H522", "value": "++ (40%-75% growth inhibition of the cancer cells)"}, {"measurement": "growth inhibition of the cancer cells", "setting": "BT-549", "value": "+++ (at least 75% growth inhibition of the cancer cells)"}, {"measurement": "growth inhibition of the cancer cells", "setting": "RXF 393", "value": "+++ (at least 75% growth inhibition of the cancer cells)"}, {"measurement": "growth inhibition of the cancer cells", "setting": "UO-31", "value": "+++ (at least 75% growth inhibition of the cancer cells)"}, {"measurement": "growth inhibition of the cancer cells", "setting": "HOP-92", "value": "++ (40%-75% growth inhibition of the cancer cells)"}, {"measurement": "growth inhibition of the cancer cells", "setting": "MOLT-4", "value": "+ (less than 40% growth inhibition of the cancer cells)"}, {"measurement": "growth inhibition of the cancer cells", "setting": "HCT-15", "value": "++ (40%-75% growth inhibition of the cancer cells)"}]}]}
